Read-outs that look alike come from different tables or passages of the source. No end group written: not given here.
How the values were obtained:
Test in all cases: biochemical
[1] = target: DR1 (DRB1*0101) (Homo sapiens, UniProt P01903+P01911, A100R/D57E/F55L/F60I/F76Y/I96L/L162R/M171V/P40L/Q125E/R42F/V115G/Y59C); type: binding
[2] = target: DR4w4 (DRB1*0401) (Homo sapiens, UniProt P01903+P01911, A100K/A169T/F76Y/I96L/K127E/L162R/M171V/N62H/P40V/Q125Y/R42H/S133A/S149N/S66Y/V115G/V209L/W38E); type: binding
[3] = target: DRB1*0301 (Homo sapiens, UniProt P01903+P01911, A100K/A102G/A103R/A169T/F55Y/I96L/K41T/L162R/M171V/P40S/Q125H/Q178H/Q39Y/R42S/S66N/T106N/T262R/W38E/Y61H); type: binding
[4] = target: DRB1*0405 (Homo sapiens, UniProt P01903+P01911, A100R/A169T/D86S/F76Y/I96L/K127E/L162R/M171V/N62H/P40V/Q125Y/R42H/S133A/S149N/S66Y/V115G/V209L/W38E); type: binding
[5] = target: DRB1*0802 (Homo sapiens, UniProt P01903+P01911, A100R/A103L/A169T/F76Y/H45Y/I96F/K41T/L162R/M171V/P40S/Q125H/Q178H/Q39Y/Q99D/R218S/R42G/S66Y/V115G/W38E); type: binding
[6] = target: DRB1*0901 (Homo sapiens, UniProt P01903+P01911, A100R/A103E/D57H/D86V/F55Y/F60I/F76Y/I96F/K127E/L162R/M171V/P40D/Q125H/Q99R/R33Q/R42F/S133A/S66N/T210M/V115G/W38K/Y107V/Y59G/Y89S); type: binding
[7] = target: DRB1*1501 (Homo sapiens, UniProt P01903+P01911); type: binding
[8] = target: DRB3*0101 (Homo sapiens, UniProt P01903+P79483); type: binding
[9] = target: DRB4*0101 (Homo sapiens, UniProt P01903+P13762, G164S); type: binding
[10] = target: DRB1*1101 (Homo sapiens, UniProt P01903+P01911, A100R/A169T/A87E/I96F/K41T/L162R/M171V/P40S/Q125H/Q178H/Q39Y/Q99D/R42S/S66Y/T262R/V115G/W38E)
[11] = target: DRB5*0101 (Homo sapiens, UniProt P01903+Q30154)
[12] = target: DR7 (DRB1*0701) (Homo sapiens, UniProt P01903+P01911, A100R/A102G/A103Q/D57E/D86V/E43K/F76Y/K127E/L162R/M171V/P40G/Q125H/Q99D/R33Q/R42Y/R54Q/S133A/S66F/T210M/V115G/Y107V/Y59L/Y89S); type: binding
[13] = target: DRB1*1302 (Homo sapiens, UniProt P01903+P01911, A100E/A169T/K41T/L162R/M171V/P40S/Q125H/Q178H/Q39Y/Q99D/R42S/S66N/T262R/V115G/W38E/Y61H); type: binding
Chain of DRB1*1302 (P01903 26-254 limits assumed, other chains not shown): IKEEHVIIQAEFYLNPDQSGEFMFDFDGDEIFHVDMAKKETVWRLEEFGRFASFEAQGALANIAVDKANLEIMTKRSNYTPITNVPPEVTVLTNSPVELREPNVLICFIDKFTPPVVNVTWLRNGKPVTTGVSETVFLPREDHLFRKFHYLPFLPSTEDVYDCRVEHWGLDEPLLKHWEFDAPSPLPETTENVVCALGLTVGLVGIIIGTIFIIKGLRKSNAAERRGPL

Chain of DRB1*1101 (P01903 26-254 limits assumed, other chains not shown): as above
Chain of DRB1*0301 (P01903 26-254 limits assumed, other chains not shown): as above

Compound | IC50 [1] [µM] | IC50 [2] [µM] | IC50 [3] [µM] | IC50 [4] [µM] | IC50 [5] [µM] | IC50 [6] [µM] | IC50 [7] [µM] | IC50 [8] [µM] | IC50 [9] [µM] | IC50 ([10]; Binding affinity DRB1 *1101) [µM] | IC50 ([11]; Binding affinity DRB5 *0101) [µM] | IC50 [12] [µM] | IC50 [13] [µM] | IC50 [10] [µM] | IC50 [11] [µM]
NCNSNTTPIVHLKGD [Peptide 1601.08] | 11.5 | 3.11 | > 20 | > 20 | > 20 | 3.14 | > 20 | > 20 | 2.64 | > 20 | > 20 |  |  |  | 
SNEVSSPEIIRQHLA [Peptide 1601.06] | > 20 | > 20 | 4.79 | > 20 | > 20 |  | 5.36 | > 20 | 0.013 | > 20 | > 20 | 8.61 |  |  | 
GVNHQHLPARRAEPQ [Peptide 1543.05] | 0.276 | > 20 | > 20 | > 20 | > 20 | > 20 | > 20 | > 20 | 14.6 | > 20 | > 20 | 16.8 | > 20 |  | 
LKGDANILKCLRYRL [Peptide 1601.26] | 17.2 | 5.59 | 0.052 | 3.14 |  | > 20 | 0.609 | 3.19 | 6.22 | 5.53 | > 20 | 9.02 | 6.9 |  | 
PCHTTKLLHRDSVDS [Peptide 1601.07] | > 20 | > 20 | 7.26 | > 20 | 2.78 | > 20 | > 20 | > 20 | 0.672 | 2.96 | > 20 | > 20 | > 20 |  | 
CC(C)[C@H](NC(=O)[C@H](CCC(=O)O)NC(=O)[C@H](Cc1c[nH]c2ccccc12)NC(=O)[C@@H](NC(=O)CNC(=O)[C@@H](NC(=O)[C@H](CC(N)=O)NC(=O)CNC(=O)[C@H](Cc1ccc(O)cc1)NC(=O)[C@H](CCCCN)NC(=O)[C@@H](N)CCC(=O)O)[C@@H](C)O)[C@@H](C)O)C(=O)N[C@@H](Cc1c[nH]cn1)C(=O)N[C@@H](Cc1ccccc1)C(=O)NCC(=O)N[C@@H](CC(N)=O)C(=O)O [Peptide 1601.11] | 0.505 |  | > 20 | 14.7 | > 20 | 2.49 | > 20 | > 20 | > 20 | > 20 | > 20 | 0.091 | > 20 |  | 
TTPIIHKLGDRNSLK [Peptide 1601.17] | 0.085 | 0.392 | 0.501 | 19 | 0.419 | > 20 | 0.382 | 11 | 0.019 |  |  | > 20 | 1.48 | 4.8 | 5.57
TYISTSQRDDFLNTV [Peptide 1601.27] | > 20 | 16.3 | 0.152 | 5.2 | > 20 | 13 | > 20 | 6.62 | 0.48 | > 20 | > 20 |  |  |  | 
LSQRLNVCQDKILEH [Peptide 1601.21] | > 20 | > 20 | 0.21 | 4.63 | > 20 | > 20 | > 20 | > 20 | 5.03 | > 20 | > 20 | > 20 | > 20 |  | 
QMMLETLNNTEYKNE [Peptide 1601.22] | > 20 |  | 9.64 | 0.063 | > 20 | > 20 | > 20 | > 20 | 0.555 | > 20 | > 20 | > 20 | 14.7 |  | 
PTGCLKKHGYTVEVQ [Peptide 1601.23] | 17.9 | 19.8 | > 20 | > 20 | > 20 | 1.74 |  | > 20 | 7.47 | > 20 | > 20 | 2.27 | 0.082 |  | 
CC(C)C[C@H](NC(=O)[C@H](CCC(N)=O)NC(=O)[C@H](CCCCN)NC(=O)[C@@H](NC(=O)[C@H](CC(C)C)NC(=O)[C@H](CCC(N)=O)NC(=O)[C@@H](NC(=O)[C@H](C)NC(=O)[C@H](CO)NC(=O)[C@@H](NC(=O)[C@@H](NC(=O)[C@H](CC(=O)O)NC(=O)[C@H](CC(=O)O)NC(=O)[C@@H](N)CO)[C@@H](C)O)C(C)C)[C@@H](C)O)C(C)C)C(=O)N[C@@H](CCC(N)=O)C(=O)O [Peptide 1601.13] | 7.24 | 9.55 | 10.5 | 16.3 | 19.3 |  | > 20 | > 20 | 0.026 | 15.6 | > 20 | 7.67 | 16.5 |  | 
DICNTMHYTNWTHIY [Peptide 1601.04] | 8.96 | 0.883 | 14.8 | 2.82 |  | 4.85 |  | 7.2 | 6.05 | > 20 | > 20 | 0.412 | 1.04 |  | 
FLDVVTIPNSVQISV [Peptide 1601.40] | 0.551 | 0.017 | 8.36 | 1.78 | 14.7 | 9.35 |  | 17.6 | 2.21 | 2.2 | > 20 | 0.492 | 0.053 |  | 
NTTPIIHLKGDKNSL [Peptide 1601.37] | 0.86 | 11.9 | 7.48 | > 20 | 1.9 | > 20 | 11.4 | > 20 | 0.075 | > 20 | > 20 | 18.8 | 5.44 |  | 
CC[C@H](C)[C@H](NC(=O)CNC(=O)[C@@H](NC(=O)[C@H](CCCCN)NC(=O)[C@H](CCC(=O)O)NC(=O)[C@H](CC(N)=O)NC(=O)CNC(=O)[C@H](C)N)[C@@H](C)O)C(=O)N[C@@H](CC(C)C)C(=O)N[C@H](C(=O)N[C@H](C(=O)N[C@H](C(=O)N[C@@H](Cc1ccc(O)cc1)C(=O)N[C@@H](Cc1c[nH]cn1)C(=O)N[C@@H](CO)C(=O)O)[C@@H](C)O)C(C)C)[C@@H](C)O [Peptide 1601.18] | > 20 | 3.99 | > 20 | 6.75 | > 20 | > 20 | 2.81 | > 20 | 0.932 | > 20 | > 20 |  | > 20 |  | 
CC[C@H](C)[C@H](NC(=O)[C@@H](NC(=O)[C@@H]1CCCN1C(=O)[C@@H](NC(=O)[C@@H](NC(=O)[C@H](CC(N)=O)NC(=O)CNC(=O)[C@H](CO)NC(=O)[C@H](CS)NC(=O)[C@@H](NC(=O)[C@H](CCCCN)NC(=O)[C@@H](N)CCCNC(=N)N)C(C)C)[C@@H](C)O)[C@@H](C)O)[C@@H](C)CC)C(=O)N[C@@H](Cc1c[nH]cn1)C(=O)N[C@@H](CC(C)C)C(=O)N[C@@H](CCCCN)C(=O)O [Peptide 1601.43] | 1.31 |  | > 20 | 9.21 | 8.06 | 1.12 | 8.05 | > 20 | 2.1 | > 20 | 18 |  | 0.011 |  | 

— patent publication US9340577B2, “HLA binding motifs and peptides and their uses” (priority 1992, dated 2016)
